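Protocol summary: plate cells (96-well), add compound at 5 concentrations, incubate 48 h, interpolate endpoints linearly. Here, GI50 denotes the concentration required for 50% inhibition of growth.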 Calls of active or inactive are those of the source. No stated cut-off is given here; in the data, active = GI50 up to about 1.1 µM and inactive = higher.
Experiments:
Experiment in all cases: growth of human tumour cells (NCI), 48 h
NCI-H23 = tested on: NCI-H23
HOP-62 = tested on: HOP-62
CCRF-CEM = tested on: CCRF-CEM
SF-295 = tested on: SF-295
RPMI-8226 = tested on: RPMI-8226
K562 = tested on: K562
NCI-H226 = tested on: NCI-H226
A549 = tested on: A549
A498 = tested on: A498
IGROV-1 = tested on: IGROV-1
SW-620 = tested on: SW-620
HL-60 = tested on: HL-60
PC-3 = tested on: PC-3
T47D = tested on: T47D
SF-268 = tested on: SF-268
TK-10 = tested on: TK-10
DU-145 = tested on: DU-145
SK-MEL-28 = tested on: SK-MEL-28
NCI-H522 = tested on: NCI-H522
BT-549 = tested on: BT-549

SMILES | GI50 (NCI-H23) | GI50 (HOP-62) | GI50 (CCRF-CEM) | GI50 (SF-295) | GI50 (RPMI-8226) | GI50 (K562) | GI50 (NCI-H226) | GI50 (A549) | GI50 (A498) | GI50 (IGROV-1) | GI50 (SW-620) | GI50 (HL-60) | GI50 (PC-3) | GI50 (T47D) | GI50 (SF-268) | GI50 (TK-10) | GI50 (DU-145) | GI50 (SK-MEL-28) | GI50 (NCI-H522) | GI50 (BT-549)
CC12CCC(CC(=O)/C1=C(/Br)I)C2(C)C (stereo not drawn) | 13.5 µM (inactive) | 17.9 µM (inactive) | 14.3 µM (inactive) | 0.31 µM (active) | 6.25 µM (inactive) | 11.2 µM (inactive) | 13.8 µM (inactive) | 14.6 µM (inactive) | 19.3 µM (inactive) | 16.9 µM (inactive) | 17 µM (inactive) | 3.43 µM (inactive) | 11.1 µM (inactive) | 21.7 µM (inactive) | 14.6 µM (inactive) | 18.8 µM (inactive) | 17.7 µM (inactive) | 16.2 µM (inactive) | – | –
O=C(O)C1(CC(CCCN2CCCCC2)c2ccccc2)CCCC1 (stereo not drawn) | > 100 µM (inactive) | > 100 µM (inactive) | > 100 µM (inactive) | > 100 µM (inactive) | > 100 µM (inactive) | > 100 µM (inactive) | > 100 µM (inactive) | > 100 µM (inactive) | > 100 µM (inactive) | > 100 µM (inactive) | > 100 µM (inactive) | > 100 µM (inactive) | > 100 µM (inactive) | > 100 µM (inactive) | > 100 µM (inactive) | > 100 µM (inactive) | > 100 µM (inactive) | > 100 µM (inactive) | > 100 µM (inactive) | –
N=C(N)C1CN(CCc2c[nH]c3ccccc23)C(=O)NC1=O (stereo not drawn) | > 100 µM (inactive) | > 100 µM (inactive) | > 100 µM (inactive) | > 100 µM (inactive) | > 100 µM (inactive) | > 100 µM (inactive) | > 100 µM (inactive) | > 100 µM (inactive) | > 100 µM (inactive) | > 100 µM (inactive) | > 100 µM (inactive) | > 100 µM (inactive) | > 100 µM (inactive) | > 100 µM (inactive) | > 100 µM (inactive) | > 100 µM (inactive) | > 100 µM (inactive) | > 100 µM (inactive) | – | > 100 µM (inactive)
O=P1(C(O)c2ccccc2)N(Cc2ccccc2)[C@@H]2CCCC[C@H]2N1Cc1ccccc1 (stereo partly drawn) | 47.9 µM (inactive) | 40.8 µM (inactive) | 34.8 µM (inactive) | 23.6 µM (inactive) | – | 53.5 µM (inactive) | 24.8 µM (inactive) | 28.8 µM (inactive) | – | 28.6 µM (inactive) | 33.9 µM (inactive) | 22.3 µM (inactive) | 24.5 µM (inactive) | 21.9 µM (inactive) | 25.6 µM (inactive) | 30.3 µM (inactive) | 35 µM (inactive) | > 100 µM (inactive) | 20.7 µM (inactive) | 50.2 µM (inactive)
[O-][S+](Nc1ccccc1)c1ccc(N2CCOCC2)cc1 (stereo not drawn) | > 100 µM (inactive) | > 100 µM (inactive) | 54.2 µM (inactive) | > 100 µM (inactive) | 58.7 µM (inactive) | 27.3 µM (inactive) | > 100 µM (inactive) | 43.9 µM (inactive) | – | 13.6 µM (inactive) | 30.1 µM (inactive) | 53.8 µM (inactive) | – | 13.7 µM (inactive) | 15.4 µM (inactive) | > 100 µM (inactive) | 51.4 µM (inactive) | > 100 µM (inactive) | 32.8 µM (inactive) | 6.82 µM (inactive)
CCCC(=O)NC(NC1CCCCC1)(C(=O)OCC)C(F)(F)F (stereo not drawn) | > 100 µM (inactive) | > 100 µM (inactive) | > 100 µM (inactive) | > 100 µM (inactive) | > 100 µM (inactive) | > 100 µM (inactive) | > 100 µM (inactive) | > 100 µM (inactive) | – | > 100 µM (inactive) | > 100 µM (inactive) | > 100 µM (inactive) | > 100 µM (inactive) | > 100 µM (inactive) | > 100 µM (inactive) | > 100 µM (inactive) | > 100 µM (inactive) | > 100 µM (inactive) | > 100 µM (inactive) | –
CCCNC(=O)CCC(C)C1CCC2C3C(C[C@H](OC(C)=O)[C@]12C)[C@@]1(C)CCC2(C[C@H]1C[C@H]3OC(C)=O)OOC1(CC[C@]3(C)C4C[C@H](OC(C)=O)[C@]5(C)C(C(C)CCC(=O)NCCC)CCC5C4[C@H](OC(C)=O)C[C@@H]3C1)OO2 (stereo partly drawn) | > 100 µM (inactive) | 20.8 µM (inactive) | > 100 µM (inactive) | 60.4 µM (inactive) | > 100 µM (inactive) | > 100 µM (inactive) | 20.8 µM (inactive) | > 100 µM (inactive) | – | 20.2 µM (inactive) | > 100 µM (inactive) | > 100 µM (inactive) | > 100 µM (inactive) | – | 32.1 µM (inactive) | > 100 µM (inactive) | 53.2 µM (inactive) | > 100 µM (inactive) | > 100 µM (inactive) | > 100 µM (inactive)

Reference: ChEMBL document CHEMBL1201862, “PubChem BioAssay data set” (2004)
